The values that follow come from publication PMC4051503 (2014).

For the assay, the system named is d(AAAATTTT)2 (DNA, duplex) AAAATTTT
Briefly: X-ray crystallography (2.1 Å). Particulars: 8 mM MnCl2; 40 mM sodium cacodylate pH 6.5, 0.5 mM spermine, 5% MPD, 15 °C; 0.25 mM duplex, 0.75 mM CD27.

Consider `c1cc(Nc2ccc(NC3=NCCN3)cc2)ccc1NC1=NCCN1`, for which the binding result is recorded as “yes”.
